# Laboratory results taken from US10798941B2, “Microbiocidal oxadiazole derivatives” (SYNGENTA PARTICIPATIONS AG, priority 2016, dated 2020).
# What was measured:
# [1] = test system: Glomerella Lagenarium (Colletotrichum Lagenarium); experiment: Glomerella lagenarium (Colletotrichum lagenarium) liquid culture / cucumber / preventative (anthracnose); assay type: cell-based; details: Colletotrichum orbiculare; 20 ppm in the applied formulation; liquid culture in PDB, 24° C., inhibition of growth measured photometrically 3 to 4 days after application, vs untreated; read-out: disease control
# Summary of the method: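 Conidia from cryogenic storage were mixed into potato dextrose broth. This was added to compound diluted from DMSO into 0.025% Tween20, tested at 20 ppm. Plates were incubated in the dark at 24 °C and 96% relative humidity, and growth was read photometrically after 2–7 days as % activity versus untreated check.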
# [2] = test system: Phakopsora pachyrhizi; experiment: Phakopsora pachyrhizi / soybean / leaf disc preventative (Asian soybean rust); assay type: in vivo; details: foliar, 288 h, 200 ppm in the applied formulation, soybean leaf disks, inoculated one day after application, assessed 12 to 14 days after application, vs untreated, read-out: disease control
# Procedure: (§1) Leaf disks or leaf segments of various plant species are cut from plants grown in a greenhouse. The cut leaf disks or segments are placed in multiwell plates (24-well format) onto water agar. The leaf disks are sprayed with a test solution before (preventative) or after (curative) inoculation. Compounds to be tested are prepared as DMSO solutions (max. 10 mg/ml) which are diluted to the appropriate concentration with 0.025% Tween20 just before spraying. The inoculated leaf disks or segments are incubated under defined conditions (temperature, relative humidity, light, etc.) according to the respective test system. A single evaluation of disease level is carried out 3 to 14 days after inoculation, depending on the pathosystem. Percent disease control relative to the untreated check leaf disks or segments is then calculated.
# Soybean leaf disks are placed on water agar in multiwell plates (24-well format) and sprayed with the formulated test compound diluted in water. One day after application leaf discs are inoculated by spraying a spore suspension on the lower leaf surface. After an incubation period in a climate cabinet of 24-36 hours in darkness at 20° C. and 75% rh leaf disc are kept at 20° C. with 12 h light/day and 75% rh. The activity of a compound is assessed as percent disease control compared to untreated when an appropriate level of disease damage appears in untreated check leaf disks (12 to 14 days after application).
# (§2) The following compounds at 200 ppm in the applied formulation give at least 80% disease control in this test when compared to untreated control leaf disks under the same conditions, which show extensive disease development.
# [3] = test system: Puccinia recondita f. Sp. Tritici; experiment: Puccinia recondita f. sp. tritici / wheat / leaf disc preventative (brown rust); assay type: in vivo; details: foliar, 168 h, 200 ppm in the applied formulation, wheat leaf segments cv. Kanzler, preventative, inoculated 1 day after application, assessed 7 to 9 days after application, vs untreated, read-out: disease control
# Summary of the method: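 Preventative leaf-segment test: spray application of diluted formulated compound on wheat cv. Kanzler, spore inoculation after 1 day. Percent control relative to untreated segments rated 7 to 9 days post-application, with incubation at 19° C, 75% relative humidity, 12 h photoperiod.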
# [4] = test system: Puccinia recondita f. Sp. Tritici; experiment: Puccinia recondita f. sp. tritici / wheat / leaf disc curative (brown rust); assay type: in vivo; details: foliar, 144 h, 200 ppm in the applied formulation, wheat leaf segments cv. Kanzler, applied 1 day after inoculation, assessed 6 to 8 days after application, vs untreated, read-out: disease control
# Procedure: as §1
# Wheat leaf segments cv. Kanzler are placed on agar in multiwell plates (24-well format). The leaf segments are then inoculated with a spore suspension of the fungus. Plates were stored in darkness at 19° C. and 75% relative humidity. The formulated test compound diluted in water was applied 1 day after inoculation. The leaf segments were incubated at 19° C. and 75% relative humidity under a light regime of 12 hours light/12 hours darkness in a climate cabinet and the activity of a compound was assessed as percent disease control compared to untreated when an appropriate level of disease damage appears in untreated check leaf segments (6 to 8 days after application).
# as §2
SMILES,inhibition of growth at 20 ppm [1],pest or weed control at 200 ppm [2],pest or weed control at 200 ppm [3],pest or weed control at 200 ppm [4]
"Cc1ccc2c(nnn2Cc2ccc(-c3noc(C(F)(F)F)n3)cc2)c1C [Compound 1.198, 3-[4-[(4,5-dimethylbenzotriazol-1-yl)methyl]phenyl]-5-(trifluoromethyl)-1,2,4-oxadiazole]",≥ 80%,≥ 80%,,
"CCOC(=O)c1cc(C2CC2)nn1Cc1ccc(-c2noc(C(F)(F)F)n2)cc1 [Compound 1.187, ethyl 5-cyclopropyl-2-[[4-[5-(trifluoromethyl)-1,2,4-oxadiazol-3-yl]phenyl]methyl]pyrazole-3-carboxylate]",,≥ 80%,,
"N#Cc1nn(Cc2ccc(-c3noc(C(F)(F)F)n3)cc2)c2cc(F)ccc12 [Compound 1.194, 6-fluoro-1-[[4-[5-(trifluoromethyl)-1,2,4-oxadiazol-3-yl]phenyl]methyl]indazole-3-carbonitrile]",≥ 80%,≥ 80%,,
"N#Cc1nn(Cc2ccc(-c3noc(C(F)(F)F)n3)cc2)c2ccccc12 [Compound 1.228, 1-[[4-[5-(trifluoromethyl)-1,2,4-oxadiazol-3-yl]phenyl]methyl]indazole-3-carbonitrile]",≥ 80%,≥ 80%,,
"CCOC(=O)c1cnn(Cc2ccc(-c3noc(C(F)(F)F)n3)cc2)c1C(F)F [Compound 1.205, ethyl 5-(difluoromethyl)-1-[[4-[5-(trifluoromethyl)-1,2,4-oxadiazol-3-yl]phenyl]methyl]pyrazole-4-carboxylate]",≥ 80%,≥ 80%,,
"O=Cc1ccc(-c2nnn(Cc3ccc(-c4noc(C(F)(F)F)n4)cc3)n2)cc1 [Compound 1.227, 4-[2-[[4-[5-(trifluoromethyl)-1,2,4-oxadiazol-3-yl]phenyl]methyl]tetrazol-5-yl]benzaldehyde]",≥ 80%,≥ 80%,,
"Cc1ccc(-c2nnnn2Cc2ccc(-c3noc(C(F)(F)F)n3)cc2)cc1 [Compound 1.201, 3-[4-[[5-(p-tolyl)tetrazol-1-yl]methyl]phenyl]-5-(trifluoromethyl)-1,2,4-oxadiazole]",,≥ 80%,,
"Cc1nc2ccc(C(F)(F)F)cc2n1Cc1ccc(-c2noc(C(F)(F)F)n2)cc1 [Compound 1.190, 3-[4-[[2-methyl-6-(trifluoromethyl)benzimidazol-1-yl]methyl]phenyl]-5-(trifluoromethyl)-1,2,4-oxadiazole]",≥ 80%,≥ 80%,,
"CCOC(=O)c1ccc2c(c1)nnn2Cc1ccc(-c2noc(C(F)(F)F)n2)cc1 [Compound 1.184, ethyl 1-[[4-[5-(trifluoromethyl)-1,2,4-oxadiazol-3-yl]phenyl]methyl]benzotriazole-5-carboxylate]",≥ 80%,≥ 80%,,
"CCOC(=O)c1ccc2nn(Cc3ccc(-c4noc(C(F)(F)F)n4)cc3)nc2c1 [Compound 1.185, ethyl 2-[[4-[5-(trifluoromethyl)-1,2,4-oxadiazol-3-yl]phenyl]methyl]benzotriazole-5-carboxylate]",≥ 80%,≥ 80%,,
"FC(F)(F)c1nc(-c2ccc(Cn3nnnc3-c3ccc(Cl)cc3)cc2)no1 [Compound 1.230, 3-[4-[[5-(4-chlorophenyl)tetrazol-1-yl]methyl]phenyl]-5-(trifluoromethyl)-1,2,4-oxadiazole]",,≥ 80%,,
"CC(=O)c1cccn1Cc1ccc(-c2noc(C(F)(F)F)n2)cc1 [Compound 1.59, 1-[1-[[4-[5-(trifluoromethyl)-1,2,4-oxadiazol-3-yl]phenyl]methyl]pyrrol-2-yl]ethanone]",≥ 80%,≥ 80%,,
"FC(F)(F)c1nc(-c2ccc(Cn3nnc(-c4ccccc4Br)n3)cc2)no1 [Compound 1.153, 3-[4-[[5-(2-bromophenyl)tetrazol-2-yl]methyl]phenyl]-5-(trifluoromethyl)-1,2,4-oxadiazole]",,≥ 80%,,
"Cc1cn(Cc2ccc(-c3noc(C(F)(F)F)n3)cc2F)cn1 [Compound 1.124, 3-[3-fluoro-4-[(4-methylimidazol-1-yl)methyl]phenyl]-5-(trifluoromethyl)-1,2,4-oxadiazole]",≥ 80%,,≥ 80%,≥ 80%
"FC(F)(F)c1cc(Cl)c2nnn(Cc3ccc(-c4noc(C(F)(F)F)n4)cc3)c2c1 [Compound 1.195, 3-[4-[[4-chloro-6-(trifluoromethyl)benzotriazol-1-yl]methyl]phenyl]-5-(trifluoromethyl)-1,2,4-oxadiazole]",,≥ 80%,,
"FC(F)(F)c1nc(-c2ccc(Cn3cnc(Cl)c3Cl)cc2)no1 [Compound 1.46, 3-[4-[(4,5-dichloroimidazol-1-yl)methyl]phenyl]-5-(trifluoromethyl)-1,2,4-oxadiazole]",≥ 80%,,≥ 80%,≥ 80%
"COc1ccc(-c2cc(C=O)n(Cc3ccc(-c4noc(C(F)(F)F)n4)cc3)n2)cc1 [Compound 1.223, 5-(4-methoxyphenyl)-2-[[4-[5-(trifluoromethyl)-1,2,4-oxadiazol-3-yl]phenyl]methyl]pyrazole-3-carbaldehyde]",≥ 80%,≥ 80%,,
"COC(=O)c1ncn(Cc2ccc(-c3noc(C(F)(F)F)n3)cc2F)c1C(=O)OC [Compound 1.118, dimethyl 1-[[2-fluoro-4-[5-(trifluoromethyl)-1,2,4-oxadiazol-3-yl]phenyl]methyl]imidazole-4,5-dicarboxylate]",≥ 80%,,≥ 80%,≥ 80%
"Cc1cn(Cc2ccc(-c3noc(C(F)(F)F)n3)cc2)cn1 [Compound 1.83, 3-[4-[(4-methylimidazol-1-yl)methyl]phenyl]-5-(trifluoromethyl)-1,2,4-oxadiazole]",≥ 80%,,≥ 80%,≥ 80%
"COC(=O)c1ncn(Cc2ccc(-c3noc(C(F)(F)F)n3)cn2)c1C(=O)OC [Compound 1.133, dimethyl 1-[[5-[5-(trifluoromethyl)-1,2,4-oxadiazol-3-yl]-2-pyridyl]methyl]imidazole-4,5-dicarboxylate]",≥ 80%,,≥ 80%,≥ 80%
"FC(F)(F)c1nc(-c2ccc(Cn3cc(I)cn3)cc2)no1 [Compound 1.44, 3-[4-[(4-iodopyrazol-1-yl)methyl]phenyl]-5-(trifluoromethyl)-1,2,4-oxadiazole]",≥ 80%,,≥ 80%,≥ 80%
"FC(F)(F)c1nc(-c2ccc(Cn3nnnc3-c3ccccc3Br)cc2)no1 [Compound 1.152, 3-[4-[[5-(2-bromophenyl)tetrazol-1-yl]methyl]phenyl]-5-(trifluoromethyl)-1,2,4-oxadiazole]",≥ 80%,≥ 80%,,
"FC(F)(F)c1nc(-c2ccc(Cn3nnc4cc(Cl)c(Oc5ccc6c(c5)OCO6)cc43)cc2)no1 [Compound 1.177, 3-[4-[[6-(1,3-benzodioxol-5-yloxy)-5-chloro-benzotriazol-1-yl]methyl]phenyl]-5-(trifluoromethyl)-1,2,4-oxadiazole]",,≥ 80%,,
"COC(=O)c1cncn1Cc1ccc(-c2noc(C(F)(F)F)n2)cc1 [Compound 1.89, methyl 3-[[4-[5-(trifluoromethyl)-1,2,4-oxadiazol-3-yl]phenyl]methyl]imidazole-4-carboxylate]",≥ 80%,,≥ 80%,≥ 80%
